Values after ≈ are worked out from the molar mass of the structure shown.

Test [1] deals with Pseudomonas aeruginosa UI-18: Wild-type (PA-7). Description: MIC determination (CLSI), PA-7. It counts as cell-based. The note with it: Pseudomonas aeruginosa UI-18 wild-type; overnight incubation; lower of duplicate values; read-out: PA-7 (MIC). The method, boiled down:
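Broth dilution MIC per CLSI M7-A8, using 2-fold compound dilutions incubated overnight; MIC is the lowest concentration with no visible growth versus the drug-free control. Run in duplicate, lower value reported when within 2-fold. Control organisms and reference compounds were included for QC.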

Test [2] addresses T1, Pseudomonas aeruginosa LpxC enzyme (Pseudomonas aeruginosa, UniProt P47205).
T1 construct: made in house; host or cells: E. coli
T1 sequence (P47205 1-303): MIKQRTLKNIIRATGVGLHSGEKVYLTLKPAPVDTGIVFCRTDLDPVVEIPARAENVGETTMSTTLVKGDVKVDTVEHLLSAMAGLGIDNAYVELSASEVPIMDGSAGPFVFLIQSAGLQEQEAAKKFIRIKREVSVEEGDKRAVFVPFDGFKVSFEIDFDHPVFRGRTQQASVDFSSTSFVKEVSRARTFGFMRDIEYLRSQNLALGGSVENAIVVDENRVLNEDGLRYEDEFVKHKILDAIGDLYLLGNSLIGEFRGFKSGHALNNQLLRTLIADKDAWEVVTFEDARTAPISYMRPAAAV
Description: IC50 assay, LpxC enzyme from P. aeruginosa (BioTrove RapidFire mass spectrometry). The note with it: P. aeruginosa LpxC enzyme 0.1 nM, 25° C., 1 hour, pH 8.0; read-out: PA: IC50. It counts as biochemical. The method, boiled down:
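P. aeruginosa LpxC reaction run 1 hour, stopped with 1 N HCl, and substrate-to-product conversion quantified by RapidFire mass spectrometry. IC50 calculated from percent conversion using a no-enzyme control.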

In test [3] the test system is Acinetobacter baumannii/haemolyticus: Multidrug-resistant clinical isolate (AB-3167). In words: MIC determination (CLSI), AB-3167. The format is cell-based. The note with it: Acinetobacter baumannii/haemolyticus multidrug-resistant clinical isolate; overnight incubation; lower of duplicate values; read-out: AB-3167 (MIC). The method, boiled down:
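Broth dilution MIC per CLSI M7-A8, 2-fold concentration steps, overnight incubation, visual read of lowest concentration inhibiting growth versus drug-free control. Tested in duplicate; lower value reported if within 2-fold, otherwise repeated; QC organisms and reference drugs required within range.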

For test [4], the system named is Escherichia coli EC-1: VOGEL, mouse virulent. In words: MIC determination (CLSI), EC-1. The format is cell-based. As to conditions: Escherichia coli, read-out: EC-1 (MIC). The essentials: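 Broth dilution MIC per CLSI M7-A8, with 2-fold compound dilutions incubated overnight with a standard inoculum. MIC is the lowest concentration visibly inhibiting growth versus drug-free control; tested in duplicate, reporting the lower value when within 2-fold, with QC organisms and reference compounds required in range.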

Test [5] concerns Klebsiella pneumoniae: Ciprofloxacin-resistant isolate, expresses ESBL, clinical isolate (KP-3700). Description: MIC determination (CLSI), KP-3700. It counts as cell-based. As to conditions: overnight incubation, lower of duplicate values. The essentials:
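Broth dilution MIC per CLSI M7-A8 against the ciprofloxacin-resistant, ESBL-expressing clinical isolate, 2-fold concentration steps, overnight incubation, visual read of lowest growth-inhibiting concentration. Tested in duplicate; lower value reported when within 2-fold; control organisms and reference compounds required within range.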

By MIC is commonly meant the least concentration at which growth counts as inhibited. Usually IC50 stands for the midpoint of a concentration-inhibition curve. `CC(CCn1cc(-c2cccc(O)c2)cn1)(C(=O)NO)S(C)(=O)=O` (centres unmarked) [Example 44, N-hydroxy-4-[4-(3-hydroxyphenyl)-1H-pyrazol-1-yl]-2-methyl-2-(methylsulfonyl)butanamide]: the MIC in test [1], in test [3] and in test [4] was above 64 µg/mL in each case. The IC50 in test [2] was 21.1 nM. Also, in test [5], the “KP-3700 (MIC)” value was above 64.0 µg/mL.
Regarding `CC(CCn1cc(-c2ccccc2F)cn1)(C(=O)NO)S(C)(=O)=O` (centres unmarked) [Example 45, 4-[4-(2-fluorophenyl)-1H-pyrazol-1-yl]-N-hydroxy-2-methyl-2-(methylsulfonyl)butanamide], the MIC in test [1] is 2 µg/mL (≈ 5.63 µM); in test [3], above 64 µg/mL; in test [4] it was 16 µg/mL (≈ 45 µM). Further, in test [2], the IC50 is 2.5 nM. Further, the “KP-3700 (MIC)” value in test [5] was 64 µg/mL.
`CC(CCn1cc(-c2ccccc2C#N)cn1)(C(=O)NO)S(C)(=O)=O` (centres unmarked) [Example 46, 4-[4-(2-cyanophenyl)-1H-pyrazol-1-yl]-N-hydroxy-2-methyl-2-(methylsulfonyl)butanamide]: the figures for the MIC in test [1], in test [3] and in test [4] were 32 µg/mL (≈ 88.3 µM), above 64 µg/mL and 4 µg/mL (≈ 11 µM), respectively. In test [2], the IC50 came to 72.5 nM. Moreover, the “KP-3700 (MIC)” value in test [5] is above 64.0 µg/mL.
For `CC(CCn1cc(-c2ccc(C#N)cc2)cn1)(C(=O)NO)S(C)(=O)=O` (centres unmarked) [Example 47, 4-[4-(4-cyanophenyl)-1H-pyrazol-1-yl]-N-hydroxy-2-methyl-2-(methylsulfonyl)butanamide], in that order: 4 µg/mL (≈ 11 µM), above 64 µg/mL, 64 µg/mL (≈ 177 µM), 1.15 nM and above 64.0 µg/mL.
As to `CC(CCn1cc(-c2cccc(C#N)c2)cn1)(C(=O)NO)S(C)(=O)=O` (centres unmarked) [Example 48, 4-[4-(3-cyanophenyl)-1H-pyrazol-1-yl]-N-hydroxy-2-methyl-2-(methylsulfonyl)butanamide], the MIC is 64 µg/mL (≈ 177 µM) in test [1], above 64 µg/mL in test [3] and above 64 µg/mL in test [4]. Besides, the IC50 in test [2] is 29.3 nM. The “KP-3700 (MIC)” value in test [5] is above 64.0 µg/mL.
Regarding `Cc1cc(O)ccc1-c1cnn(CCC(C)(C(=O)NO)S(C)(=O)=O)c1` (centres unmarked) [Example 49, N-hydroxy-4-[4-(4-hydroxy-2-methylphenyl)-1H-pyrazol-1-yl]-2-methyl-2-(methylsulfonyl)butanamide], the MIC in test [1], in test [3] and in test [4] was above 64 µg/mL each time. Further, the IC50 in test [2] was found to be 90.4 nM. For the same molecule, the “KP-3700 (MIC)” value in test [5] is above 64.0 µg/mL.
As for `Cc1cc(-c2cnn(CCC(C)(C(=O)NO)S(C)(=O)=O)c2)ccc1O` (centres unmarked) [Example 50, N-hydroxy-4-[4-(4-hydroxy-3-methylphenyl)-1H-pyrazol-1-yl]-2-methyl-2-(methylsulfonyl)butanamide], the MIC in test [1], in test [3] and in test [4] was above 64 µg/mL in each case. Besides, in test [2], the IC50 is 44.4 nM. In test [5], the “KP-3700 (MIC)” value is above 64.0 µg/mL.
As to `COc1cccc(-c2cnn(CCC(C)(C(=O)NO)S(C)(=O)=O)c2)c1` (centres unmarked) [Example 51, N-hydroxy-4-[4-(3-methoxyphenyl)-1H-pyrazol-1-yl]-2-methyl-2-(methylsulfonyl)butanamide], the results for the MIC in test [1], in test [3] and in test [4] were 16 µg/mL (≈ 43.5 µM), above 64 µg/mL and above 64 µg/mL, respectively. The IC50 in test [2] is 7.3 nM. In test [5], the “KP-3700 (MIC)” value was above 64.0 µg/mL.
With `Cc1cc(-c2cnn(CCC(C)(C(=O)NO)S(C)(=O)=O)c2)ccc1F` (centres unmarked) [Example 52, 4-[4-(4-fluoro-3-methylphenyl)-1H-pyrazol-1-yl]-N-hydroxy-2-methyl-2-(methylsulfonyl)butanamide], the results for the MIC in test [1], in test [3] and in test [4] were 2 µg/mL (≈ 5.41 µM), above 64 µg/mL and 16 µg/mL (≈ 43.3 µM), respectively. Moreover, in test [2], the IC50 is 6.93 nM. For the same molecule, in test [5], the “KP-3700 (MIC)” value was 64 µg/mL.
For the molecule `Cc1c(F)cccc1-c1cnn(CCC(C)(C(=O)NO)S(C)(=O)=O)c1` (centres unmarked) [Example 53, 4-[4-(3-fluoro-2-methylphenyl)-1H-pyrazol-1-yl]-N-hydroxy-2-methyl-2-(methylsulfonyl)butanamide], the values for the MIC in test [1], in test [3] and in test [4] were 16 µg/mL (≈ 43.3 µM), above 64 µg/mL and 32 µg/mL (≈ 86.6 µM), respectively. The IC50 in test [2] turned out to be 9.28 nM. In addition, the “KP-3700 (MIC)” value in test [5] is above 64.0 µg/mL.
In the same order, the values of `CC(CCn1cc(-c2ccc(Cl)cn2)cn1)(C(=O)NO)S(C)(=O)=O` (centres unmarked) [Example 54, 4-[4-(5-chloropyridin-2-yl)-1H-pyrazol-1-yl]-N-hydroxy-2-methyl-2-(methylsulfonyl)butanamide] are 16 µg/mL (≈ 42.9 µM), above 64 µg/mL, above 64 µg/mL, 6.94 nM and above 64.0 µg/mL.
In the same order, the values of `CC(CCn1cc(-c2ccc(F)cc2F)cn1)(C(=O)NO)S(C)(=O)=O` (centres unmarked) [Example 55, 4-[4-(2,4-difluorophenyl)-1H-pyrazol-1-yl]-N-hydroxy-2-methyl-2-(methylsulfonyl)butanamide] are 2 µg/mL (≈ 5.36 µM), above 64 µg/mL, 8 µg/mL (≈ 21.4 µM), 2.07 nM and 64 µg/mL.
In the same order, the values of `CC(CCn1cc(-c2cc(F)ccc2F)cn1)(C(=O)NO)S(C)(=O)=O` (centres unmarked) [Example 56, 4-[4-(2,5-difluorophenyl)-1H-pyrazol-1-yl]-N-hydroxy-2-methyl-2-(methylsulfonyl)butanamide] are 8 µg/mL (≈ 21.4 µM), above 64 µg/mL, 32 µg/mL (≈ 85.7 µM), 6.75 nM and above 64.0 µg/mL.
As to `CC(CCn1cc(-c2ccc3cc[nH]c3n2)cn1)(C(=O)NO)S(C)(=O)=O` (centres unmarked) [Example 57, N-hydroxy-2-methyl-2-(methylsulfonyl)-4-[4-(1H-pyrrolo[2,3-b]pyridin-6-yl)-1H-pyrazol-1-yl]butanamide], the results for the minimal inhibitory concentration (MIC) in test [1], in test [3] and in test [4] were 64 µg/mL (≈ 170 µM), above 64 µg/mL and above 64 µg/mL, respectively. In addition, in test [2], the IC50 came out at 3.72 nM. The “KP-3700 (MIC)” value in test [5] was above 64.0 µg/mL.
Take `CC(CCn1cc(-c2ccc3c(c2)CCO3)cn1)(C(=O)NO)S(C)(=O)=O` (centres unmarked) [Example 58, 4-[4-(2,3-dihydro-1-benzofuran-5-yl)-1H-pyrazol-1-yl]-N-hydroxy-2-methyl-2-(methylsulfonyl)butanamide]: the MIC was 4 µg/mL (≈ 10.5 µM) in test [1], above 64 µg/mL in test [3] and above 64 µg/mL in test [4]. Further, the IC50 in test [2] worked out at 1.17 nM. For the same molecule, the “KP-3700 (MIC)” value in test [5] was above 64.0 µg/mL.
Take `CC(CCn1cc(-c2ccc(F)c(C#N)c2)cn1)(C(=O)NO)S(C)(=O)=O` (centres unmarked) [Example 59, 4-[4-(3-cyano-4-fluorophenyl)-1H-pyrazol-1-yl]-N-hydroxy-2-methyl-2-(methylsulfonyl)butanamide]: the MIC was 64 µg/mL (≈ 168 µM) in test [1], above 64 µg/mL in test [3] and above 64 µg/mL in test [4]. Further, the IC50 in test [2] amounted to 11.6 nM. Besides, the “KP-3700 (MIC)” value in test [5] is above 64.0 µg/mL.
As for `COc1ccc(-c2cnn(CCC(C)(C(=O)NO)S(C)(=O)=O)c2)cc1F` (centres unmarked) [Example 60, 4-[4-(3-fluoro-4-methoxyphenyl)-1H-pyrazol-1-yl]-N-hydroxy-2-methyl-2-(methylsulfonyl)butanamide], the figures for the MIC in test [1], in test [3] and in test [4] were 8 µg/mL (≈ 20.8 µM), above 64 µg/mL and 64 µg/mL (≈ 166 µM), respectively. Besides, the IC50 in test [2] is 20.1 nM. In addition, in test [5], the “KP-3700 (MIC)” value is above 64.0 µg/mL.
For `CC(CCn1cc(-c2ccc3c(c2)C(=O)CC3)cn1)(C(=O)NO)S(C)(=O)=O` (centres unmarked) [Example 61, N-hydroxy-2-methyl-2-(methylsulfonyl)-4-[4-(3-oxo-2,3-dihydro-1H-inden-5-yl)-1H-pyrazol-1-yl]butanamide], in that order: above 64 µg/mL, above 64 µg/mL, above 64 µg/mL, 38.6 nM and above 64.0 µg/mL.
For the molecule `CC(CCn1cc(-c2ccc3c(c2)CCC3=O)cn1)(C(=O)NO)S(C)(=O)=O` (centres unmarked) [Example 62, N-hydroxy-2-methyl-2-(methylsulfonyl)-4-[4-(1-oxo-2,3-dihydro-1H-inden-5-yl)-1H-pyrazol-1-yl]butanamide], the MIC is 16 µg/mL (≈ 40.9 µM) in test [1], above 64 µg/mL in test [3] and above 64 µg/mL in test [4]. The IC50 in test [2] was 0.754 nM. Also, the “KP-3700 (MIC)” value in test [5] is above 64.0 µg/mL.
